The values below come from ChEMBL document CHEMBL1201862, “PubChem BioAssay data set” (2004).

SMILES strings stand for the structures.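 Compound exposure: 48 hours, 5 concentrations, 96-well plates. At the GI50, growth is halved.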 The source made the active and inactive calls. Cut-off read from the data, not from the text of the source: active = GI50 up to about 1.1 µM and inactive = higher. Where only a bound is given, the exact number is not on record here.

Some test systems named below: HL-60; OVCAR-8; Malme-3M; MDA-MB-435; MOLT-4; MCF7; RXF 393; SF-268; HCC 2998; IGROV-1; BT-549; PC-3; SF-539; HCT-15; UACC-257; SK-MEL-5; SF-295; EKVX; OVCAR-3; HT-29.
Holding throughout (assay): inhibition of tumour cell growth, NCI panel, 48 h

In the case of `Cc1cc(Cl)nc2nc(Cl)c(N)cc12`, the GI50 with HL-60 is 1.77 µM (inactive); in the assay on OVCAR-8, 2.67 µM (inactive); with Malme-3M it was 9.53 µM (inactive); in the assay on MDA-MB-435 it was 2.22 µM (inactive); with MOLT-4, 4.6 µM (inactive); in the assay with MCF7, 1.63 µM (inactive). Besides, the GI50 with RXF 393 is 8.2 µM (inactive); in the assay on SF-268, 2.29 µM (inactive); with HCC 2998, 1.86 µM (inactive); with IGROV-1 it was 7.87 µM (inactive); in the assay with BT-549, 14.6 µM (inactive); in the assay on PC-3, 12.1 µM (inactive). Also, the GI50 is 4.71 µM (inactive) with SF-539; 1.9 µM in the assay on HCT-15; 1.87 µM (inactive) in the assay on UACC-257; 10.9 µM (inactive) in the assay with SK-MEL-5; 12.3 µM (inactive) with SF-295; 3.48 µM (inactive) in the assay on EKVX. Besides, the values for the GI50 in the assay on OVCAR-3 and in the assay with HT-29 were 1.87 µM (inactive) and 2.15 µM (inactive), respectively.
For the compound `CC(=O)OC1COC(Nc2nc(NCc3ccccc3)n(C)c(=O)c2N=O)C(OC(C)=O)C1OC(C)=O` (stereo not given), the GI50 in the assay on HL-60, in the assay with OVCAR-8, in the assay on Malme-3M, with MDA-MB-435, with MOLT-4 and in the assay with MCF7 was > 10 µM (inactive) each time. In addition, the GI50 in the assay with RXF 393, in the assay on SF-268, in the assay with HCC 2998, in the assay on IGROV-1, in the assay on BT-549 and in the assay with PC-3 was > 10 µM (inactive) throughout. Moreover, the GI50 with SF-539 was > 10 µM (inactive); with HCT-15, greater than 10 µM; with UACC-257, > 10 µM (inactive); in the assay with SK-MEL-5 it was > 10 µM (inactive); in the assay with SF-295 it was > 10 µM (inactive); with EKVX it was > 10 µM (inactive). For the same compound, the GI50 in the assay on OVCAR-3 and in the assay on HT-29 was > 10 µM (inactive) throughout.
Consider `COCCOC1=C(Cl)C(=O)c2c(O)ccc(O)c2C1=O`, for which the GI50 was 0.111 µM (active) with HL-60; 1.63 µM (inactive) in the assay with OVCAR-8; 0.955 µM (active) in the assay with Malme-3M; 1.02 µM (active) in the assay with MDA-MB-435; 0.105 µM (active) in the assay with MOLT-4; 1.21 µM (inactive) with MCF7. Besides, the GI50 with RXF 393 is 0.798 µM (active); in the assay on SF-268, 4.71 µM (inactive); in the assay on HCC 2998 it was 8.2 µM (inactive); in the assay with IGROV-1 it was 3.08 µM (inactive); in the assay on BT-549, 2.52 µM (inactive); with PC-3 it was 4.62 µM (inactive). Besides, the GI50 is 2.16 µM (inactive) with SF-539; 1.21 µM in the assay on HCT-15; 1.96 µM (inactive) with UACC-257; 1.95 µM (inactive) in the assay with SK-MEL-5; 14.8 µM (inactive) in the assay with SF-295; 4.97 µM (inactive) in the assay on EKVX. Further, the figures for the GI50 in the assay with OVCAR-3 and in the assay on HT-29 were 1.09 µM (active) and 2.37 µM (inactive), respectively.
With `CCOc1ccc2nc3nc(O)nc(C)c3c(NC(C)(CO)CO)c2c1`, the GI50 with HL-60 is > 100 µM (inactive); in the assay on OVCAR-8 it was > 100 µM (inactive); with Malme-3M, > 100 µM (inactive); with MDA-MB-435 it was > 100 µM (inactive); with MOLT-4 it was > 100 µM (inactive); in the assay on MCF7, 4.08 µM (inactive). Also, the GI50 in the assay on RXF 393, in the assay on SF-268, in the assay on HCC 2998, in the assay with IGROV-1, in the assay with BT-549 and in the assay with PC-3 was > 100 µM (inactive) in each case. Moreover, the GI50 is > 100 µM (inactive) in the assay on SF-539; greater than 100 µM with HCT-15; > 100 µM (inactive) in the assay on UACC-257; > 100 µM (inactive) with SK-MEL-5; > 100 µM (inactive) with SF-295; > 100 µM (inactive) with EKVX. Also, the GI50 in the assay with OVCAR-3 and in the assay on HT-29 was > 100 µM (inactive) throughout.
As for `c1ccc(N/N=C2\CC(c3ccccc3)Oc3ccccc32)cc1` (stereo not given), the GI50 was 38.2 µM (inactive) in the assay on HL-60; 39.6 µM (inactive) with OVCAR-8; > 100 µM (inactive) with Malme-3M; 27.5 µM (inactive) with MDA-MB-435; 28.4 µM (inactive) in the assay on MOLT-4; 24 µM (inactive) with MCF7. Besides, the GI50 with RXF 393 was 31.6 µM (inactive); in the assay on SF-268, 35.8 µM (inactive); with HCC 2998, 43.4 µM (inactive); in the assay with IGROV-1 it was 22.6 µM (inactive); with BT-549 it was 39.8 µM (inactive); in the assay with PC-3 it was 47.1 µM (inactive). Besides, the GI50 in the assay with SF-539 is 37.6 µM (inactive); in the assay with HCT-15, 31 µM; in the assay on UACC-257 it was 69.3 µM (inactive); in the assay with SK-MEL-5, 40.8 µM (inactive); in the assay with SF-295, 42.7 µM (inactive); with EKVX, 21.9 µM (inactive). For the same compound, the GI50 was 34.5 µM (inactive) in the assay on OVCAR-3 and 32.4 µM (inactive) with HT-29.
Consider `CC(=O)OCC(OC(C)=O)C(OC(C)=O)C(/C=N\Nc1nc2ccccc2c(=O)[nH]1)=N\Nc1nc2ccccc2c(=O)[nH]1` (stereo not given), for which the GI50 in the assay with HL-60, with OVCAR-8, in the assay with Malme-3M, in the assay on MDA-MB-435, with MOLT-4 and in the assay with MCF7 was > 100 µM (inactive) each time. Further, the GI50 is > 100 µM (inactive) in the assay with RXF 393; > 100 µM (inactive) in the assay with SF-268; 19.1 µM (inactive) with HCC 2998; > 100 µM (inactive) with IGROV-1; > 100 µM (inactive) in the assay on BT-549; > 100 µM (inactive) in the assay with PC-3. In addition, the GI50 was > 100 µM (inactive) with SF-539; greater than 100 µM with HCT-15; 17.3 µM (inactive) in the assay on UACC-257; > 100 µM (inactive) with SK-MEL-5; > 100 µM (inactive) with SF-295; > 100 µM (inactive) in the assay on EKVX. For the same compound, the GI50 in the assay with OVCAR-3 and with HT-29 was > 100 µM (inactive) throughout.
As for `C=CCn1c(N)c(C#N)c(C#N)c1CCC`, the GI50 is > 100 µM (inactive) with HL-60; > 100 µM (inactive) in the assay with OVCAR-8; > 100 µM (inactive) in the assay with Malme-3M; > 100 µM (inactive) with MDA-MB-435; 43.2 µM (inactive) in the assay on MOLT-4; > 100 µM (inactive) in the assay on MCF7. The GI50 in the assay on RXF 393, in the assay on SF-268, in the assay with HCC 2998, in the assay with IGROV-1, in the assay with BT-549 and in the assay with PC-3 was > 100 µM (inactive) each time. The GI50 was > 100 µM (inactive) in the assay on SF-539; greater than 100 µM in the assay on HCT-15; > 100 µM (inactive) with UACC-257; > 100 µM (inactive) with SK-MEL-5; > 100 µM (inactive) in the assay with SF-295; 42.7 µM (inactive) in the assay on EKVX. For the same compound, the results for the GI50 in the assay with OVCAR-3 and in the assay on HT-29 were 74.6 µM (inactive) and > 100 µM (inactive), respectively.
